Laboratory results from patent US4605744A, “Imidazole derivatives” (Hoffmann-La Roche Inc., priority 1985, dated 1986).
Where a name gives a salt, the structure may show the parent alone. Read-outs that look alike come from different tables or passages of the source.

Columns and labels:
Assay in all cases: In vitro antibacterial activity (MIC)
Type in all cases: cell-based
C. freundii 8ASM = details: C. freundii 8ASM
Procedure, shortened: (§1)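 Mueller-Hinton broth carries the compound at 128–0.008 μg/ml; diluted drug may be used fresh or stored frozen at -10° to -70° C before use. Wells are seeded with a 10^-2 dilution of overnight culture and incubated overnight at 37° C.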

E. aerogenes 503-478 = tested on: E. aerogenes 503-478
Procedure, shortened: as §1

E. aerogenes 83 = tested on: E. aerogenes 83
Procedure, shortened: as §1

E. aerogenes 8 = details: E. aerogenes 8
Procedure, shortened: as §1

E. cloacae 214 = tested on: E. cloacae 214
Procedure, shortened: as §1

E. cloacae 5699 = tested on: E. cloacae 5699
Procedure, shortened: as §1

E. cloacae 6951 = tested on: E. cloacae 6951
Procedure, shortened: as §1

E. cloacae 9295 = tested on: E. cloacae 9295
Procedure, shortened: as §1

E. cloacae 9570A = tested on: E. cloacae 9570A
Procedure, shortened: as §1

E. cloacae P99 = tested on: E. cloacae P99
Procedure, shortened: as §1

E. coli 387-1 = tested on: E. coli 387-1
Procedure, shortened: as §1

E. coli 48 = tested on: E. coli 48
Procedure, shortened: as §1

E. coli 4 = tested on: E. coli 4
Procedure, shortened: as §1

E. coli 503-455 = tested on: E. coli 503-455
Procedure, shortened: as §1

E. coli 5152 = tested on: E. coli 5152
Procedure, shortened: as §1

E. coli R-563 = tested on: E. coli R-563
Procedure, shortened: as §1

K. pneumoniae 35 = details: K. pneumoniae 35
Procedure, shortened: as §1

K. pneumoniae 4964 = tested on: K. pneumoniae 4964
Procedure, shortened: as §1

K. pneumoniae 503-964 = details: K. pneumoniae 503-964
Procedure, shortened: as §1

K. pneumoniae 503-994 = tested on: K. pneumoniae 503-994
Procedure, shortened: as §1

K. pneumoniae 5096 = details: K. pneumoniae 5096
Procedure, shortened: as §1

K. pneumoniae 8357 = tested on: K. pneumoniae 8357
Procedure, shortened: as §1

K. pneumoniae A = details: K. pneumoniae A
Procedure, shortened: as §1

K. pneumoniae HE7 = details: K. pneumoniae HE7
Procedure, shortened: as §1

P. aeruginosa 8710 = details: P. aeruginosa 8710
Procedure, shortened: as §1

P. mirabilis 190 = tested on: P. mirabilis 190
Procedure, shortened: as §1

P. mirabilis 2 = tested on: P. mirabilis 2
Procedure, shortened: as §1

P. rettgeri ATCC 9250 = tested on: P. rettgeri ATCC 9250
Procedure, shortened: as §1

P. vulgaris ATCC 6380 = tested on: P. vulgaris ATCC 6380
Procedure, shortened: as §1

S. aureus Giorgio = details: S. aureus Giorgio
Procedure, shortened: as §1

S. marcescens 5805 = tested on: S. marcescens 5805
Procedure, shortened: as §1

S. marcescens S2 = details: S. marcescens S2
Procedure, shortened: as §1

S. marcescens S3 = details: S. marcescens S3
Procedure, shortened: as §1

S. marcescens S4 = tested on: S. marcescens S4
Procedure, shortened: as §1

S. marcescens SM = tested on: S. marcescens SM
Procedure, shortened: as §1

S. pneumoniae 6302 = tested on: S. pneumoniae 6302
Procedure, shortened: as §1

S. typhi P58A = tested on: S. typhi P58A
Procedure, shortened: as §1

P. aeruginosa 503-56 = details: P. aeruginosa 503-56
Procedure, shortened: as §1

P. aeruginosa 6148B = tested on: P. aeruginosa 6148B
Procedure, shortened: as §1

P. aeruginosa 8780 = details: P. aeruginosa 8780
Procedure, shortened: as §1

S. pneumoniae 6301 = details: S. pneumoniae 6301
Procedure, shortened: as §1

S. pneumoniae SC = tested on: S. pneumoniae SC
Procedure, shortened: as §1

S. pyogenes 4 = details: S. pyogenes 4
Procedure, shortened: as §1

[1] = Klebsiella pneumoniae, read-out: MIC
[2] = Serratia marcescens, read-out: MIC

## CC1(C)S[C@@H]2[C@H](N=CN3CCC(Cc4ncc[nH]4)CC3)C(=O)N2[C@H]1C(=O)O [Q, [2S-(2alpha,5alpha,6beta)]-6-[[[4-(1H-imidazol-2-yl-methyl)-1-piperidinyl]methylene]amino]-3,3-dimethyl-7-oxo-4-thia-1-azabicyclo[3.2.0]heptane-2-carboxylic acid hydrochloride]
C. freundii 8ASM; Citrobacter freundii, 8ASM, read-out: MIC
  MIC: 0.062 µg/mL
E. aerogenes 503-478; Klebsiella aerogenes, 503478, E. aerogenes 503-478, read-out: MIC
  MIC: 16 µg/mL
E. aerogenes 83; Klebsiella aerogenes, 83, E. aerogenes 83, read-out: MIC
  MIC: 4 µg/mL
E. aerogenes 8; Klebsiella aerogenes, read-out: MIC
  MIC: 0.125 µg/mL
E. cloacae 214; Enterobacter cloacae, 214, E. cloacae 214, read-out: MIC
  MIC: 0.5 µg/mL
E. cloacae 5699; Enterobacter cloacae, 5699, E. cloacae 5699, read-out: MIC
  MIC: 4 µg/mL
E. cloacae 6951; Enterobacter cloacae, 6951, E. cloacae 6951, read-out: MIC
  MIC: 16 µg/mL
E. cloacae 9295; Enterobacter cloacae, 9295, E. cloacae 9295, read-out: MIC
  MIC: 4 µg/mL
E. cloacae 9570A; Enterobacter cloacae, read-out: MIC
  MIC: 0.125 µg/mL
E. cloacae P99; Enterobacter cloacae, P99, E. cloacae P99
  MIC: 8 µg/mL
E. coli 387-1; Escherichia coli, 3871, E. coli 387-1, read-out: MIC
  MIC: 0.062 µg/mL
E. coli 48; Escherichia coli, 48, E. coli 48, read-out: MIC
  MIC: 8 µg/mL
E. coli 4; Escherichia coli, 4, E. coli 4, read-out: MIC
  MIC: 0.062 µg/mL
E. coli 503-455; Escherichia coli, 503455, E. coli 503-455, read-out: MIC
  MIC: 1 µg/mL
E. coli 5152; Escherichia coli, 5152, E. coli 5152, read-out: MIC
  MIC: 64 µg/mL
E. coli R-563; Escherichia coli, R563, E. coli R-563, read-out: MIC
  MIC: 0.062 µg/mL
K. pneumoniae 35; [1]
  MIC: 0.25 µg/mL
K. pneumoniae 4964; Klebsiella pneumoniae, 4964, K. pneumoniae 4964, read-out: MIC
  MIC: 4 µg/mL
K. pneumoniae 503-964; Klebsiella pneumoniae, 503964, read-out: MIC
  MIC: 0.5 µg/mL
K. pneumoniae 503-994; Klebsiella pneumoniae, 503994, K. pneumoniae 503-994, read-out: MIC
  MIC: 8 µg/mL
K. pneumoniae 5096; [1]
  MIC: 128 µg/mL
K. pneumoniae 8357; Klebsiella pneumoniae, 8357, K. pneumoniae 8357, read-out: MIC
  MIC: 4 µg/mL
K. pneumoniae A; [1]
  MIC: 0.062 µg/mL
K. pneumoniae HE7; [1]
  MIC: > 128 µg/mL
P. aeruginosa 8710; Pseudomonas aeruginosa, read-out: MIC
  MIC: 128 µg/mL
P. mirabilis 190; Proteus mirabilis, 190, P. mirabilis 190, read-out: MIC
  MIC: 0.25 µg/mL
P. mirabilis 2; Proteus mirabilis, 2, P. mirabilis 2, read-out: MIC
  MIC: 8 µg/mL
P. rettgeri ATCC 9250; Providencia rettgeri, ATCC9250, P. rettgeri ATCC 9250, read-out: MIC
  MIC: 16 µg/mL
P. vulgaris ATCC 6380; Proteus vulgaris, ATCC6380, P. vulgaris ATCC 6380, read-out: MIC
  MIC: 0.016 µg/mL
S. aureus Giorgio; Staphylococcus aureus, read-out: MIC
  MIC: 8 µg/mL
S. marcescens 5805; Serratia marcescens, 5805, S. marcescens 5805, read-out: MIC
  MIC: 1 µg/mL
S. marcescens S2; [2]
  MIC: 0.125 µg/mL
S. marcescens S3; [2]
  MIC: 0.125 µg/mL
S. marcescens S4; Serratia marcescens, S4, S. marcescens S4, read-out: MIC
  MIC: 0.5 µg/mL
S. marcescens SM; [2]
  MIC: 0.125 µg/mL
S. pneumoniae 6302; Streptococcus pneumoniae, 6302, S. pneumoniae 6302, read-out: MIC
  MIC: 2 µg/mL
S. typhi P58A; Salmonella enterica, TYPHI
  MIC: 8 µg/mL

## CC1(C)S[C@@H]2[C@H](N=CN3CCCC(CCn4ccnc4)CC3)C(=O)N2[C@H]1C(=O)O.Cl.O (single isomer, unassigned) [D]
C. freundii 8ASM
  MIC: 0.062 µg/mL
E. aerogenes 503-478; E. aerogenes 503-478
  MIC: 8 µg/mL
E. aerogenes 83; E. aerogenes 83
  MIC: 16 µg/mL
E. aerogenes 8
  MIC: 128 µg/mL
E. cloacae 214; E. cloacae 214
  MIC: 0.25 µg/mL
E. cloacae 5699; E. cloacae 5699
  MIC: 0.5 µg/mL
E. cloacae 6951; E. cloacae 6951
  MIC: 16 µg/mL
E. cloacae 9295; E. cloacae 9295
  MIC: 0.5 µg/mL
E. cloacae 9570A
  MIC: 0.5 µg/mL
E. cloacae P99; E. cloacae P99
  MIC: 0.125 µg/mL
E. coli 387-1; E. coli 387-1
  MIC: 0.125 µg/mL
E. coli 48; E. coli 48
  MIC: 0.125 µg/mL
E. coli 4; E. coli 4
  MIC: 0.125 µg/mL
E. coli 503-455; E. coli 503-455
  MIC: 1 µg/mL
E. coli 5152; E. coli 5152
  MIC: 16 µg/mL
E. coli R-563; E. coli R-563
  MIC: 0.125 µg/mL
K. pneumoniae 35
  MIC: 0.25 µg/mL
K. pneumoniae 4964; K. pneumoniae 4964
  MIC: 1 µg/mL
K. pneumoniae 503-964
  MIC: 0.25 µg/mL
K. pneumoniae 503-994; K. pneumoniae 503-994
  MIC: 0.125 µg/mL
K. pneumoniae 5096
  MIC: > 128 µg/mL
K. pneumoniae 8357; K. pneumoniae 8357
  MIC: 0.25 µg/mL
K. pneumoniae A
  MIC: 0.031 µg/mL
K. pneumoniae HE7
  MIC: > 128 µg/mL
P. aeruginosa 503-56
  MIC: > 128 µg/mL
P. aeruginosa 6148B
  MIC: > 128 µg/mL
P. aeruginosa 8710
  MIC: > 128 µg/mL
P. aeruginosa 8780
  MIC: > 128 µg/mL
P. mirabilis 190; P. mirabilis 190
  MIC: 0.25 µg/mL
P. mirabilis 2; P. mirabilis 2
  MIC: 0.5 µg/mL
P. rettgeri ATCC 9250; P. rettgeri ATCC 9250
  MIC: 0.5 µg/mL
P. vulgaris ATCC 6380; P. vulgaris ATCC 6380
  MIC: 0.125 µg/mL
S. aureus Giorgio
  MIC: 16 µg/mL
S. marcescens 5805; S. marcescens 5805
  MIC: 2 µg/mL
S. marcescens S2
  MIC: 0.5 µg/mL
S. marcescens S3
  MIC: 0.5 µg/mL
S. marcescens S4; S. marcescens S4
  MIC: 1 µg/mL
S. marcescens SM
  MIC: 0.25 µg/mL
S. pneumoniae 6301
  MIC: 4 µg/mL
S. pneumoniae 6302; S. pneumoniae 6302
  MIC: 8 µg/mL
S. pneumoniae SC
  MIC: 4 µg/mL
S. pyogenes 4
  MIC: 1 µg/mL
S. typhi P58A
  MIC: 0.125 µg/mL
